Source: PMC7901654, “Bioisosteric Discovery of NPA101.3, a Second-Generation RET/VEGFR2 Inhibitor Optimized for Single-Agent Polypharmacology” (Journal of Medicinal Chemistry, 2020)

Tests used:
Test in all cases: KinomeScan panel screen
Assay type in all cases: binding
[1] = biological target: T1, PIM1 (Homo sapiens, UniProt P11309); settings: PIM1, 100 nM; read-out: Percent Control
T1 construct: purchased DiscoveRx KINOMEscan (TRKA and CSF1R IC50 enzymes from Invitrogen)

[2] = biological target: T2, EPHA1 (Homo sapiens, UniProt P21709); settings: EPHA1, 100 nM; read-out: Percent Control
T2 construct: purchased DiscoveRx KINOMEscan (TRKA and CSF1R IC50 enzymes from Invitrogen)
T2 sequence (P21709 26-976): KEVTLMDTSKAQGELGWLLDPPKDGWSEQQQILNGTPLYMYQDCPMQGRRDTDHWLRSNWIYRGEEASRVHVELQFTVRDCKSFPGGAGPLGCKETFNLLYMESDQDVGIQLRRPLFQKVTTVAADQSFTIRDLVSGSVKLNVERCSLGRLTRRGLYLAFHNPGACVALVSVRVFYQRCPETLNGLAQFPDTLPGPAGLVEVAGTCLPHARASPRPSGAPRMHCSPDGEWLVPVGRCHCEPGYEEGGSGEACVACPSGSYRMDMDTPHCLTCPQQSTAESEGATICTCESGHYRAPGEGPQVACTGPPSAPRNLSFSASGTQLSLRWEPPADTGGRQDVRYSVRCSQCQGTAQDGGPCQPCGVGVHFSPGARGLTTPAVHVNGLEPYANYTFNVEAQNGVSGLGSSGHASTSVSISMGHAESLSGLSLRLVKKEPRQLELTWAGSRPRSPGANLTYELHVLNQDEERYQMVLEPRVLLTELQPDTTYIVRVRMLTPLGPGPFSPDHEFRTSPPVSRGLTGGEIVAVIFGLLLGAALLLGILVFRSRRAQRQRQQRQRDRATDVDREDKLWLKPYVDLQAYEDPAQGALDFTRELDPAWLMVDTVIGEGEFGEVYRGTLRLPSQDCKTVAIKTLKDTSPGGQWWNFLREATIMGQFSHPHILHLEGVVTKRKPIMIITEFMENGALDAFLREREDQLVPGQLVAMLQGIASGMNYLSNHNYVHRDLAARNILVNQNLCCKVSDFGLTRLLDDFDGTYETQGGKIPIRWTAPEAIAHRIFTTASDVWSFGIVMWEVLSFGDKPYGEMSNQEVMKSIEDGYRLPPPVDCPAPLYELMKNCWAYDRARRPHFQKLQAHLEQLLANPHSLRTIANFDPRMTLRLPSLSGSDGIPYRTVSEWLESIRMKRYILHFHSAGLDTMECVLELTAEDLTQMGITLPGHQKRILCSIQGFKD

[3] = biological target: T3, PLK4 (Homo sapiens, UniProt O00444); settings: PLK4, 100 nM; read-out: Percent Control
T3 construct: purchased DiscoveRx KINOMEscan (TRKA and CSF1R IC50 enzymes from Invitrogen)

[4] = biological target: T4, AKT1 (Homo sapiens, UniProt P31749); settings: AKT1, 100 nM; read-out: Percent Control
T4 construct: purchased DiscoveRx KINOMEscan (TRKA and CSF1R IC50 enzymes from Invitrogen)
T4 sequence (P31749 whole entry): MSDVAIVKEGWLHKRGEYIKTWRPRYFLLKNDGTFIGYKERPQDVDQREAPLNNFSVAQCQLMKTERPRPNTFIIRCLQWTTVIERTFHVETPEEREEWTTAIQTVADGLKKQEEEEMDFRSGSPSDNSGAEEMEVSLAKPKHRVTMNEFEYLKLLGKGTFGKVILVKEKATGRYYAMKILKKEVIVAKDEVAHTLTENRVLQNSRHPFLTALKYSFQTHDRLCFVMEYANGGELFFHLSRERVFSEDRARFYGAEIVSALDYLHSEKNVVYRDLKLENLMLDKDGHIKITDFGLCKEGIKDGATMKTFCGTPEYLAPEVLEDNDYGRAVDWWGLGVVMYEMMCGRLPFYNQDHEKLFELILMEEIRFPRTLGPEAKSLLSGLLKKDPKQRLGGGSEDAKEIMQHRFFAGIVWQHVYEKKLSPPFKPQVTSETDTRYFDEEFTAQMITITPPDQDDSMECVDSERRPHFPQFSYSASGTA

[5] = biological target: T5, STK33 (Homo sapiens, UniProt Q9BYT3); settings: STK33, 100 nM; read-out: Percent Control
T5 construct: purchased DiscoveRx KINOMEscan (TRKA and CSF1R IC50 enzymes from Invitrogen)

[6] = biological target: T6, JNK2 (Homo sapiens, UniProt P45984); settings: JNK2, 100 nM; read-out: Percent Control
T6 construct: purchased DiscoveRx KINOMEscan (TRKA and CSF1R IC50 enzymes from Invitrogen)

[7] = biological target: T7, AURKA (Homo sapiens, UniProt O14965); settings: 100 nM, read-out: Percent Control
T7 construct: purchased DiscoveRx KINOMEscan (TRKA and CSF1R IC50 enzymes from Invitrogen)
T7 sequence (O14965 whole entry): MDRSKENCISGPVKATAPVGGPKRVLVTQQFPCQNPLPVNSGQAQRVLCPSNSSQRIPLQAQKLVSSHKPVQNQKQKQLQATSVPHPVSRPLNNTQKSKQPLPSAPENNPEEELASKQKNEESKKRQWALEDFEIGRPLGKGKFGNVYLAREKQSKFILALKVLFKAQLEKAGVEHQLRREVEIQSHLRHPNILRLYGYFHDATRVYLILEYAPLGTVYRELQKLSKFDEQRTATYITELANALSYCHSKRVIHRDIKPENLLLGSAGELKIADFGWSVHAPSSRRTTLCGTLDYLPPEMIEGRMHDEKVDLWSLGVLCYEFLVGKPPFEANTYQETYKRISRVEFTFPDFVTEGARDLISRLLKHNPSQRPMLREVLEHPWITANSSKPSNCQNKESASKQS

[8] = biological target: T8, NDR1 (Homo sapiens, UniProt Q15208); settings: NDR1, 100 nM; read-out: Percent Control
T8 construct: purchased DiscoveRx KINOMEscan (TRKA and CSF1R IC50 enzymes from Invitrogen)

[9] = biological target: T9, RIPK4 (Homo sapiens, UniProt P57078); settings: RIPK4, 100 nM; read-out: Percent Control
T9 construct: purchased DiscoveRx KINOMEscan (TRKA and CSF1R IC50 enzymes from Invitrogen)

[10] = biological target: T10, TTK (Homo sapiens, UniProt P33981); settings: 100 nM, read-out: Percent Control
T10 construct: purchased DiscoverX (outsourced KINOMEscan)

[11] = biological target: T11, ITK (Homo sapiens, UniProt Q08881); settings: 100 nM, read-out: Percent Control
T11 construct: purchased DiscoveRx KINOMEscan (TRKA and CSF1R IC50 enzymes from Invitrogen)
T11 sequence (Q08881 whole entry): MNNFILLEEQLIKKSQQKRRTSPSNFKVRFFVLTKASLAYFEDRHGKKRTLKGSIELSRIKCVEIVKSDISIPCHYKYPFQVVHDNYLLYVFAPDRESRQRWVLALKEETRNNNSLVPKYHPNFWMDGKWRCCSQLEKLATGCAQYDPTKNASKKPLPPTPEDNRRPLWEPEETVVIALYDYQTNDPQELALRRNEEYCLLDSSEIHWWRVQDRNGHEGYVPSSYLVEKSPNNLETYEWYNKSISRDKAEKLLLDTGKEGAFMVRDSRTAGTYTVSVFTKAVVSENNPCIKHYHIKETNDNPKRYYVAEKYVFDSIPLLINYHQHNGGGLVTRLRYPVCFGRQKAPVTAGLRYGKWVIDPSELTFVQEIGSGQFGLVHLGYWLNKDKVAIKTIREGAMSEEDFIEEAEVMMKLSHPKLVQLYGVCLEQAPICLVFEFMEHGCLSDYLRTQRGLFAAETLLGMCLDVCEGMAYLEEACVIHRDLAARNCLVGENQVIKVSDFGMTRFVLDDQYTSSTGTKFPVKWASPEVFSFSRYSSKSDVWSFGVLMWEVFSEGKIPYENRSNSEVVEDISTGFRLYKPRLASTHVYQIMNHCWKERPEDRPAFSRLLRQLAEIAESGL

[12] = biological target: T12, SLK (Homo sapiens, UniProt Q9H2G2); settings: 100 nM, read-out: Percent Control
T12 construct: purchased DiscoveRx KINOMEscan (TRKA and CSF1R IC50 enzymes from Invitrogen)

[13] = biological target: T13, FYN (Homo sapiens, UniProt P06241); settings: 100 nM, read-out: Percent Control
T13 construct: purchased DiscoveRx KINOMEscan (TRKA and CSF1R IC50 enzymes from Invitrogen)

[14] = biological target: T14, PDPK1 (Homo sapiens, UniProt O15530); settings: PDPK1, 100 nM; read-out: Percent Control
T14 construct: purchased DiscoveRx KINOMEscan (TRKA and CSF1R IC50 enzymes from Invitrogen)
T14 sequence (O15530 whole entry): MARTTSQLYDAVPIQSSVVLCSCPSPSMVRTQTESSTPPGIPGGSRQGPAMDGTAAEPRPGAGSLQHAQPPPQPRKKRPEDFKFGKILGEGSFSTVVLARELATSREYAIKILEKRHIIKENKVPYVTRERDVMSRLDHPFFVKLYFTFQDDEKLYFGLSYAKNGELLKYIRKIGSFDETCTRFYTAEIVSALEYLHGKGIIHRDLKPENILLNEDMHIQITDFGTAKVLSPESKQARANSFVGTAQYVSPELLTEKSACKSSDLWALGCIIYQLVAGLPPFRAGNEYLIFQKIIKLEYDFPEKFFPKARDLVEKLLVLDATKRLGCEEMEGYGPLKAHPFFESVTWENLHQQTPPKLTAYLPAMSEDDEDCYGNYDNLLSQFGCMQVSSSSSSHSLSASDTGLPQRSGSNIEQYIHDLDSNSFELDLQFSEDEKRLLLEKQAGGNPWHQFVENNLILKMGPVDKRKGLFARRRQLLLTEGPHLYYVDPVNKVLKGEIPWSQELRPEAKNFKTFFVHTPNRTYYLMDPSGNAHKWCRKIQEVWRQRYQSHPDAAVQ

[15] = biological target: T15, NEK2 (Homo sapiens, UniProt P51955); settings: NEK2, 100 nM; read-out: Percent Control
T15 construct: purchased DiscoveRx KINOMEscan (TRKA and CSF1R IC50 enzymes from Invitrogen)

[16] = biological target: T16, EIF2AK1 (Homo sapiens, UniProt Q9BQI3); settings: EIF2AK1, 100 nM; read-out: Percent Control
T16 construct: purchased DiscoveRx KINOMEscan (TRKA and CSF1R IC50 enzymes from Invitrogen)

[17] = biological target: T17, CTK (Homo sapiens, UniProt P42679); settings: 100 nM, read-out: Percent Control
T17 construct: purchased DiscoveRx KINOMEscan (TRKA and CSF1R IC50 enzymes from Invitrogen)
T17 sequence (P42679 whole entry): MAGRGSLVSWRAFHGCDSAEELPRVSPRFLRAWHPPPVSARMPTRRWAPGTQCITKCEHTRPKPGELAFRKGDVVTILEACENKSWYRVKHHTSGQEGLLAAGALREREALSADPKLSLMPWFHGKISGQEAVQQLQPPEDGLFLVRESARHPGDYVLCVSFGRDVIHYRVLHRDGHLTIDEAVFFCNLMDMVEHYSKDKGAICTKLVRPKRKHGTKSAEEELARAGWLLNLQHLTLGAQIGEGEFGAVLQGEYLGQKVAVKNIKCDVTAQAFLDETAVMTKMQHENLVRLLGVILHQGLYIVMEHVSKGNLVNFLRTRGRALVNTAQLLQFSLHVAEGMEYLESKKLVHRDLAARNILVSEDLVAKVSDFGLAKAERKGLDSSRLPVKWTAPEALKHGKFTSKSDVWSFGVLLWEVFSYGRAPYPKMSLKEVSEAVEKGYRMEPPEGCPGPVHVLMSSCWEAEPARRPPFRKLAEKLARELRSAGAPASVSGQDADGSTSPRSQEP

[18] = biological target: T18, CAMK1 (Homo sapiens, UniProt Q14012); settings: CAMK1, 100 nM; read-out: Percent Control
T18 construct: purchased DiscoveRx KINOMEscan (TRKA and CSF1R IC50 enzymes from Invitrogen)
T18 sequence (Q14012 whole entry): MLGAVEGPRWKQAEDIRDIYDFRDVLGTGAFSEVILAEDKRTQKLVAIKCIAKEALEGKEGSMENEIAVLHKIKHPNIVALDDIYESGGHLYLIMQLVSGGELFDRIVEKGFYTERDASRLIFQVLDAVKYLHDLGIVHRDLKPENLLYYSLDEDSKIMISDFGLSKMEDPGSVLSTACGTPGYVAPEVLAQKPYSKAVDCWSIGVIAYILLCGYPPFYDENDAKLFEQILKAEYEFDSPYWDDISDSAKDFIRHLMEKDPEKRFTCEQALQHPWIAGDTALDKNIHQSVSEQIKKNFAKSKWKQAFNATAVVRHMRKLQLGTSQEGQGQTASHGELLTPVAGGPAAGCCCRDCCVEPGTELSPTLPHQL

[19] = biological target: T19, ASK1 (Homo sapiens, UniProt Q99683); settings: ASK1, 100 nM; read-out: Percent Control
T19 construct: purchased DiscoveRx KINOMEscan (TRKA and CSF1R IC50 enzymes from Invitrogen)

[20] = biological target: T20, TXK (Homo sapiens, UniProt P42681); settings: 100 nM, read-out: Percent Control
T20 construct: purchased DiscoverX (outsourced KINOMEscan)

[21] = biological target: T21, YANK2 (Homo sapiens, UniProt Q9NY57); settings: YANK2, 100 nM; read-out: Percent Control
T21 construct: purchased DiscoverX (outsourced KINOMEscan)
T21 sequence (Q9NY57 whole entry): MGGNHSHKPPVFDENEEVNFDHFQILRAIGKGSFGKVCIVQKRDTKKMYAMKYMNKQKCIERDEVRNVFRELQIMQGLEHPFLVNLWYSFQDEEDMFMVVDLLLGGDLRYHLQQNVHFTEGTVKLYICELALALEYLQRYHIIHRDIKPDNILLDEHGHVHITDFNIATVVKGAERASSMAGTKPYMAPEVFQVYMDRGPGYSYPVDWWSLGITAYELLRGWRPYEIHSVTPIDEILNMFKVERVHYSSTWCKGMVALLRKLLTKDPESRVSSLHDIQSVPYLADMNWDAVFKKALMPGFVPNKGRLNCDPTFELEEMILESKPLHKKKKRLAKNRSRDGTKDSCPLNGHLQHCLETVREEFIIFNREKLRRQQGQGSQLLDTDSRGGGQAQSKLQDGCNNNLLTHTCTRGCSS

T1 sequence (P11309 whole entry): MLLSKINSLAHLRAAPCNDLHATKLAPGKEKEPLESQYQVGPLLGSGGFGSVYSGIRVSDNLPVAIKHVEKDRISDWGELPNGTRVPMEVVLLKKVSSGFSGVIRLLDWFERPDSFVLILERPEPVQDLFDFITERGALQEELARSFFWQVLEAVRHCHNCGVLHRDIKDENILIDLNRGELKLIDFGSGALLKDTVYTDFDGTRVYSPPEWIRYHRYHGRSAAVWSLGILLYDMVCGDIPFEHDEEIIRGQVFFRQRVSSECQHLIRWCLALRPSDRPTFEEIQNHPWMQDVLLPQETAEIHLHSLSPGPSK

With CC(C)(C)c1cc(NC(=O)Cc2ccc(-n3cnc4cc(-c5ccc(S(C)(=O)=O)cc5)ccc43)cc2)no1 [NPA101.3] the remaining binding at 0.1 µM [1] was 94%, the remaining binding at 0.1 µM [2] was 39% and the remaining binding at 0.1 µM [3] was 100%. It also gave a remaining binding at 0.1 µM [4] of 100%, a remaining binding at 0.1 µM [5] of 83% and a remaining binding at 0.1 µM [6] of 78%. It also gave a remaining binding at 0.1 µM [7] of 100%, a remaining binding at 0.1 µM [8] of 86% and a remaining binding at 0.1 µM [9] of 100%. It also gave a remaining binding at 0.1 µM [10] of 66%, a remaining binding at 0.1 µM [11] of 72% and a remaining binding at 0.1 µM [12] of 35%. It also gave a remaining binding at 0.1 µM [13] of 27%, a remaining binding at 0.1 µM [14] of 96% and a remaining binding at 0.1 µM [15] of 100%. The remaining binding at 0.1 µM [16] was 99%, the remaining binding at 0.1 µM [17] was 56% and the remaining binding at 0.1 µM [18] was 95%. The remaining binding at 0.1 µM [19] was 95%, the remaining binding at 0.1 µM [20] was 85% and the remaining binding at 0.1 µM [21] was 98%.
